The values below come from a melting point compilation (Tetko et al.; mined from patent text by program, amines drawn as free bases though some values may be those of a salt).

By melting point is commonly meant the temperature of the solid-liquid transition. In the case of `CN(C)C(=O)N1CCC(=NO)c2cc(F)ccc21`, the melting point lay within 147 to 150 °C.
In turn, `CCOCCOc1ccc(-c2ccc3c(c2)C=C(C(=O)Nc2ccc(CN(C)C4CCOCC4)cc2)CCS3(=O)=O)cc1C` showed a melting point of 212 to 213 °C.
`CC(C)c1ccc(NC(=O)Oc2ccc3c(c2)CCN3Cc2ccccc2)cc1` yielded a melting point of 145 to 150 °C.
`COCOc1cccc(CN(C)c2cnc(-c3ccccc3)c(-c3ccccc3)n2)c1` showed a melting point of 109 to 111 °C.
In turn, `CN1CCN(c2cccc3ccc(-n4cnc5ccccc54)cc23)CC1` had a melting point of 148 to 150 °C.
With `Cc1ccc(C(=O)N2CCc3nnc(NN)cc3C2)cc1` the figure was 207 to 210 °C; with `CC(C)Oc1ccc(N)c(C(=O)O)c1`, 120 to 122 °C.
The same measure for `N#CCCNC(=O)c1cccc(-c2ccc(F)c3cc(Cc4cccc(C(F)(F)F)c4)oc23)c1`: 158 to 159 °C.
The compound `COc1ccc2[nH]ccc2c1Cl` came in with a melting point of 112 to 113 °C.
The same measure for `Cc1nc(N2C(=O)N(Cc3ccc(F)cc3)C[C@@H]2C)sc1C(N)=O`: 197 to 198 °C; for `COc1ccc(C(=O)Nc2c(Cl)cncc2Cl)c2c1oc1ccc(Cl)cc12`: above 250 °C; for `CC(C)(C)OC(=O)N1CCCN(c2c(F)c(F)nc(F)c2F)CC1`: 55 to 59 °C.
The same measure for `O=C(O)CCCC(=O)c1ccc(O)c(CCC(=O)O)n1`: 134 to 136 °C.
The same measure for `Cc1cc(C)c2c(c1C)OC(=O)C2c1ccccc1` (configuration not stated): 129 to 130 °C; for `CN1C(=O)CC[C@]2(C)c3ccc(-c4ccc(F)cc4)cc3CC[C@@H]12`: 121 to 122 °C; for `CC(C)Oc1c(-c2ccc(S(C)(=O)=O)cc2)cnn(-c2ccc(F)cc2)c1=O`: 135 to 137 °C.
`CCCCOc1ccc(S(C)(=O)=O)cc1-c1nc2c(CC)n(CCOC)nc2c(=O)[nH]1`: the melting point is 174 to 176 °C.
For `Cc1cc(-n2ccnc2)c2cccc(OCc3c(Cl)ccc(S(=O)(=O)N4CCC[C@H]4C(=O)N(C)C)c3Cl)c2n1`, the melting point was determined as 88 °C.
For the compound `OCC(O)(Cc1ccc(Cl)cc1Cl)c1cccnc1` (configuration not stated), the melting point lay in the range of 158 to 159 °C.
`Cc1c(NC(=O)CC(C)(C)C)cc2c(c1C)OC(C)(C)C2Cc1ccc(C(C)C)cc1` (configuration not stated): the melting point fell in the range of 130 to 132 °C.
The same measure for `CN1C(=O)C(c2ccc(Cl)cc2)S(=O)C1c1cccnc1` (configuration not stated): 149 to 153 °C.
Compound `COc1cc(C)c2c(c1C)C(SC)C(=O)N2` (configuration not stated) registered a melting point of 226 to 227 °C.
The compound `CCCOC1=Nc2c(ncn2-c2ccccc2)C2=N[C@@H](Cc3ccccc3)CN12` came in with a melting point of 74 to 80 °C.
Consider `CCOC(=O)Cc1ccccc1Oc1ccc(COc2cc(CC)nc3c2CCCC3)cc1`, for which the melting point was 89 to 90 °C.
Take `CC(C)N1CC([N+](=O)[O-])=C(NCC(=O)O)C1=O`: the melting point lay within 180 to 185 °C.
The compound `COc1cc2cc3c(Nc4ccc(Sc5nccn5C)c(Cl)c4)c(C#N)cnc3cc2cc1OCCCN1CCOCC1` registered a melting point of 230 to 235 °C.
Take `N#CC1=CC2(CCSCC2)Oc2ccc([N+](=O)[O-])cc21`: the melting point fell in the range of 175 to 176 °C.
Take `O=C(CCSCCC(=O)Nc1ccc(Nc2ccccc2)cc1)Nc1ccc(Nc2ccccc2)cc1`: the melting point was 199 to 203 °C.
The compound `N#CC(C#N)=C1CC=CO1` registered a melting point of 194 to 196 °C.
As to `NC(=O)c1cc2[nH]c3ccccc3c(=O)n2n1`, the melting point was 315 to 325 °C.
With `NS(=O)(=O)c1ccc(-n2nc(CCCNC(=O)NC3CCCCCC3)cc2-c2ccccc2)cc1` the figure was 164 to 170 °C.
As to `CCOc1ccc(C2=NC(=O)C(C)(C(C)C)N2)nc1` (configuration not stated), the melting point is 143 to 145 °C.
`CCN(CC)c1nc(-c2ccc3c(c2)OCO3)nc2sc(C#N)c(C)c12` had a melting point of 199 to 201 °C.
The compound `O=C(O)c1cc(Oc2c(Cl)cc(Cl)cc2Cl)ccc1[N+](=O)[O-]` showed a melting point of 192 °C.
As to `c1ccc(-c2ccc(NCc3nccc(-c4ccc(-c5ccc(N(c6ccccc6)c6ccccc6)cc5)cc4)n3)cc2)cc1`, the melting point is 224 to 225 °C.
In the case of `Cc1cc(C(O)C(=O)c2ccccc2)c(C)c(C)c1C` (configuration not stated), the melting point is 99 to 101 °C.
The compound `COc1cc(OC)c(-c2nc3cccnc3[nH]2)cc1C=CC(=O)c1ccc(C(=O)O)cc1` returned a melting point of 222 to 224 °C.
Compound `Cn1c2c3ccccc3nc-2cc2ccccc21` showed a melting point of 178 to 180 °C.
For `O=C(C(=O)c1ccc(Oc2ccc(Br)cc2)cc1)c1ccccc1`, the melting point is 85 to 86 °C.
With `Oc1ccc(-c2nn(-c3cc(Cl)ccc3Cl)c3cc(O)ccc23)c(O)c1` the figure was 78 to 80 °C.
On to `CCCCCCCCCCCCCCCCCCNC(=O)OCC(CN)OC(=O)NC` (configuration not stated), for which the melting point was in the range of 49 to 50.5 °C.
In turn, `Clc1ccc2c(c1)CNc1cc(Cl)ccc1O2` yielded a melting point of 103 to 105 °C.
The compound `Fc1ccc(-c2cn3c(n2)SCC3)cc1` yielded a melting point of 116 to 118 °C.
Regarding `C=CCNc1nc(NCC)c2scc(C)c2n1`, the melting point fell in the range of 96 to 97 °C.
The compound `C#CCC(C1=Nc2cnccc2C(=O)C1Nc1ccccc1)N(CCCNC(=O)OCc1ccccc1)C(=O)c1cccc(Cl)c1F` (configuration not stated) yielded a melting point of 100 to 102 °C.
With `COc1ccc([C@@H]2Cc3c(cccc3C(F)(F)F)N(CC3=NCCN3C(=O)OC(C)(C)C)C(=O)[C@@H]2O)cc1` the figure was 116 °C; with `Clc1ccc(N=C2NCCN2)c(Cl)c1Cl`, 161 °C.
As for `O=[N+]([O-])C=Cc1c[nH]c2ccc(-c3ccc4[nH]cnc4c3)cc12`, the melting point is above 280 °C.
The compound `CC(=O)Nc1cc(C)c2c(n1)N(C1CC1)c1ncccc1C(=O)N2C(C)=O` had a melting point of 211 to 213 °C.
With `COc1cc(N)c2nccc(C)c2c1OCCCCCc1ccco1` the figure was 41 to 42 °C; with `O=C1NC2Cc3ccccc3C2O1` (configuration not stated), 205 to 206 °C.
As for `CC(=O)Oc1ccc(C2(c3ccc(OC(C)=O)cc3)C(c3ccccc3)C2(Cl)Cl)cc1` (configuration not stated), the melting point was 74 to 75 °C.
The same measure for `O=S(c1ccncc1)C1CCNCC1` (configuration not stated): 73 to 76 °C.
In turn, `COC(=O)c1cc(F)ccc1Nc1ccnc2cc(C(F)(F)F)ccc12` registered a melting point of 174 °C.
`CC(=O)Nc1nc2c(ncn2COCC(COC(C)=O)OC(C)=O)c(=O)[nH]1` (configuration not stated) displayed a melting point of 162 to 165 °C.
In the case of `Cc1ccc(-c2ccc3c(c2)C=C(C(=O)Nc2ccc(CN4CCN(c5ncccn5)CC4)cc2)CC3)cc1`, the melting point lay within 203 to 204 °C.
`CCOC(=O)c1[nH]cc2c1NC1=C(C(=O)CCC1)C2c1ccc(Sc2nc3cc(OC)ccc3[nH]2)o1` (configuration not stated) gave a melting point of 140 °C.
In turn, `O=C(C(=O)c1cccc(C#Cc2ccccc2)c1)c1cccc(C#Cc2ccccc2)c1` gave a melting point of 144 to 145 °C.
`COc1ccc2c(c1OC)CCC1C(=O)NC(=O)C21` (configuration not stated): the melting point lay in the range of 217 to 219 °C.
Turning to `CCOC(=O)c1c(C)nc2sc(C)nc2c1NCCCN(C)C`, the melting point lay within 53 to 54 °C.
As to `NC(=O)c1cccc2c1CCCc1ccccc1-2`, the melting point is above 250 °C.
`CC(Oc1cc(Oc2ccc(C(F)(F)F)cc2Cl)ccc1[N+](=O)[O-])C(=O)NCc1ccco1` (configuration not stated) had a melting point of 128 to 130 °C.
Turning to `CCOC(OCC)c1cccc2c1Sc1c(C=O)cccc1N2C`, the melting point came out at 154 °C.
The same measure for `COc1nc(OC)c(C=CC(C)=O)c(N(C)C)n1`: 116 °C.
On to `Nc1nc2ccc(C(O)C(CO)N3CCC(Cc4ccccc4)CC3)cc2s1` (configuration not stated), for which the melting point lay within 155 to 157 °C.
`CCOC(=O)c1ncn2c1[C@@H]1CCCN1C(=O)c1sccc1-2`: the melting point fell in the range of 212 to 213 °C.
Turning to `COc1cc(N2CCC(N3CCN(C)CC3)CC2)ccc1Nc1ncc2ccc(-c3cccc(S(=O)(=O)NC(C)(C)C)c3)n2n1`, the melting point lay within 214 to 216 °C.
The same measure for `CCCCc1oc2ccccc2c1C(=O)NCc1ccc2c(-c3ccccc3)c(O)ccc2c1`: 72 °C.
The same measure for `COc1ccc(C2CNCc3c2ccc(OC)c3C)cc1OC` (configuration not stated): 128 to 129 °C; for `COC(=O)c1nn(Cc2ccc(Br)cc2F)c(=O)c2ccc(F)cc12`: 131 to 134 °C; for `ClCc1coc(-c2cc3ccccc3s2)n1`: 150 to 151 °C.
With `CCCC(=O)c1cnc2c(OC)cccc2c1Nc1ccc(OC(C)=O)cc1C`, the melting point lay within 167 to 169 °C.
`Cc1ccc(C=Cc2cccc(C#N)n2)cc1` returned a melting point of 137 to 138 °C.
For `CCOP(=S)(OCC)ON=C1C=CC(=C(C#N)c2ccccc2)C=C1`, the melting point lay within 66 to 82 °C.
The same measure for `NC(=O)c1n[nH]c(-c2ccc(Cl)cc2)c1-c1ccc(S(N)(=O)=O)cc1`: 108 to 110 °C; for `CCCc1c(OCc2ccc(/C=C3\SC(=S)NC3=O)cc2)ccc(C(C)=O)c1O`: 236 to 238 °C; for `CCCCc1nc2c(N)nc3cc(-c4cccnc4)ccc3c2n1CCNC(=O)C(C)C`: 228 to 230 °C.
`COCC#Cc1cc(C(=O)OC)c(N)cc1C(F)(F)F` gave a melting point of 107 to 111 °C.
In turn, `O=c1[nH]c(=O)n2c3c(cccc13)S(=O)c1ccc(C(F)(F)F)cc1-2` (configuration not stated) had a melting point of 302 to 304 °C.
Take `CC(C)CCCOC1CCC2C3C(=O)C=C4CC(O[Si](C)(C)C(C)(C)C)CCC4(C)C3CCC12C` (configuration not stated): the melting point was 143 to 145 °C.
As for `CS/C=C(/C)n1c(=O)n(C)c2cc(F)ccc21`, the melting point is 110 °C.
`COc1ccc2c(c1)c(Cc1cc(=O)n(C3CCCC3)[nH]1)c(C)n2C(=O)c1ccc(Cl)cc1` showed a melting point of 153 to 155 °C.
In turn, `CC(C)(C)c1cc2c(c(C(C)(C)C)c1O)CCO2` showed a melting point of 113 °C.
With `COc1ccc(/C=C/C(=O)C2C(=O)CC(c3ccc(OC)cc3)C([N+](=O)[O-])C2c2cccs2)cc1` (configuration not stated) the figure was 160 to 162 °C.
The same measure for `COCC(O)Cn1ncc([N+](=O)[O-])n1` (configuration not stated): 58.2 to 59 °C; for `C[C@@H](NC(=O)c1c[nH]c2ncc(-c3nn(C)c4cc(F)cc(F)c34)nc12)C(=O)N1CC(C#N)C1`: 235 to 265 °C; for `CCc1noc(-c2cn(-c3ncc(Cl)cc3Cl)cn2)n1`: 132 to 133 °C.
